Measured values from the NIST ThermoML archive (doi:10.1021/je500669y).

Test: xn = mol fraction of the nth substance listed
Conditions: Gas, isochoric method

F/C=C/C(F)(F)F [trans-1,3,3,3-tetrafluoropropene] + C
Conditions	specific volume [m3/kg]
263.12 K, 541.7 kPa, x2 = 0.747	0.092
273.11 K, 305.7 kPa, x2 = 0.513	0.113
273.14 K, 216.8 kPa, x2 = 0.31	0.12
273.19 K, 565.7 kPa, x2 = 0.747	0.092
283.07 K, 225.4 kPa, x2 = 0.31	0.12
283.29 K, 1326.6 kPa, x2 = 0.748	0.041
283.3 K, 588.9 kPa, x2 = 0.747	0.092
283.38 K, 319 kPa, x2 = 0.513	0.113
288.33 K, 665.7 kPa, x2 = 0.496	0.051
293.03 K, 233.9 kPa, x2 = 0.31	0.12
293.03 K, 611.2 kPa, x2 = 0.747	0.092
293.06 K, 330.6 kPa, x2 = 0.513	0.113
293.17 K, 1381 kPa, x2 = 0.748	0.041
293.26 K, 456.1 kPa, x2 = 0.251	0.056
293.33 K, 681.4 kPa, x2 = 0.496	0.051
303.15 K, 474.1 kPa, x2 = 0.251	0.056
303.16 K, 242.4 kPa, x2 = 0.31	0.12
303.16 K, 711.2 kPa, x2 = 0.496	0.051
303.16 K, 1435.1 kPa, x2 = 0.748	0.041
303.22 K, 634.1 kPa, x2 = 0.747	0.092
303.23 K, 342.7 kPa, x2 = 0.513	0.113
313.15 K, 251 kPa, x2 = 0.31	0.121
313.15 K, 995.8 kPa, x2 = 0.261	0.026
313.19 K, 354.4 kPa, x2 = 0.513	0.113
313.2 K, 1488.8 kPa, x2 = 0.748	0.041
313.22 K, 1512.1 kPa, x2 = 0.513	0.024
313.23 K, 657.6 kPa, x2 = 0.747	0.092
313.24 K, 738.5 kPa, x2 = 0.496	0.051
323.17 K, 259 kPa, x2 = 0.31	0.121
323.17 K, 510.4 kPa, x2 = 0.251	0.056
323.19 K, 366.1 kPa, x2 = 0.513	0.113
323.19 K, 765.2 kPa, x2 = 0.496	0.051
323.21 K, 1040.8 kPa, x2 = 0.261	0.026
323.27 K, 1573.2 kPa, x2 = 0.513	0.024
323.29 K, 1542.4 kPa, x2 = 0.748	0.041
323.35 K, 680.5 kPa, x2 = 0.747	0.092
333.18 K, 1636.8 kPa, x2 = 0.513	0.024
333.2 K, 702.6 kPa, x2 = 0.747	0.092
333.2 K, 792 kPa, x2 = 0.496	0.051
333.25 K, 378.1 kPa, x2 = 0.513	0.113
333.25 K, 1083.7 kPa, x2 = 0.261	0.026
333.25 K, 1595.7 kPa, x2 = 0.748	0.041
333.27 K, 267.5 kPa, x2 = 0.31	0.121
343.11 K, 546.9 kPa, x2 = 0.251	0.056
343.12 K, 1126.5 kPa, x2 = 0.261	0.026
343.16 K, 389.7 kPa, x2 = 0.513	0.113
343.18 K, 275.8 kPa, x2 = 0.31	0.121
343.23 K, 818.7 kPa, x2 = 0.496	0.051
343.23 K, 1648.5 kPa, x2 = 0.748	0.041
343.25 K, 725.3 kPa, x2 = 0.747	0.092
343.34 K, 1700.6 kPa, x2 = 0.513	0.024
353.15 K, 747.4 kPa, x2 = 0.747	0.092
353.17 K, 284.2 kPa, x2 = 0.31	0.121
353.22 K, 401.5 kPa, x2 = 0.513	0.113
353.23 K, 1167.7 kPa, x2 = 0.261	0.026
353.23 K, 1701.4 kPa, x2 = 0.748	0.041
353.24 K, 845 kPa, x2 = 0.496	0.051
353.34 K, 1759 kPa, x2 = 0.513	0.024
363.15 K, 292.6 kPa, x2 = 0.31	0.121
363.16 K, 1209.5 kPa, x2 = 0.261	0.026
363.19 K, 1820.5 kPa, x2 = 0.513	0.024
363.21 K, 770.2 kPa, x2 = 0.747	0.092
363.24 K, 413.1 kPa, x2 = 0.513	0.114
363.25 K, 871.2 kPa, x2 = 0.496	0.051
363.28 K, 1754.1 kPa, x2 = 0.748	0.041
373.1 K, 424.6 kPa, x2 = 0.513	0.114
373.1 K, 1251.1 kPa, x2 = 0.261	0.026
373.11 K, 1881.5 kPa, x2 = 0.513	0.024
373.2 K, 301 kPa, x2 = 0.31	0.121
373.23 K, 600.7 kPa, x2 = 0.251	0.056
373.23 K, 897.8 kPa, x2 = 0.496	0.051
373.27 K, 792.6 kPa, x2 = 0.747	0.092
373.27 K, 1806.6 kPa, x2 = 0.748	0.041
383.17 K, 1940.6 kPa, x2 = 0.513	0.025
383.18 K, 1291.3 kPa, x2 = 0.261	0.026
383.25 K, 815 kPa, x2 = 0.747	0.092
383.28 K, 309.5 kPa, x2 = 0.31	0.121
383.3 K, 437 kPa, x2 = 0.513	0.114
383.31 K, 1859.5 kPa, x2 = 0.748	0.041
383.33 K, 924.1 kPa, x2 = 0.496	0.051
393.06 K, 1327 kPa, x2 = 0.261	0.026
393.1 K, 2000.7 kPa, x2 = 0.513	0.025
393.13 K, 317.8 kPa, x2 = 0.31	0.121
393.14 K, 837.2 kPa, x2 = 0.747	0.092
393.22 K, 448.6 kPa, x2 = 0.513	0.114
393.32 K, 950.3 kPa, x2 = 0.496	0.051
393.33 K, 1911.9 kPa, x2 = 0.748	0.041
403.03 K, 2059.7 kPa, x2 = 0.513	0.025
403.12 K, 1366.9 kPa, x2 = 0.261	0.026
403.17 K, 460.3 kPa, x2 = 0.513	0.114
403.18 K, 326.4 kPa, x2 = 0.31	0.121
403.21 K, 860 kPa, x2 = 0.747	0.092
403.26 K, 1963.8 kPa, x2 = 0.748	0.041
403.27 K, 976.2 kPa, x2 = 0.496	0.051
412.96 K, 2117.2 kPa, x2 = 0.513	0.025
413.15 K, 1405.5 kPa, x2 = 0.261	0.026
413.18 K, 472 kPa, x2 = 0.513	0.114
413.23 K, 881.9 kPa, x2 = 0.747	0.092
413.29 K, 2016 kPa, x2 = 0.748	0.041
413.3 K, 1002.5 kPa, x2 = 0.496	0.052
413.34 K, 334.9 kPa, x2 = 0.31	0.121
413.38 K, 671.6 kPa, x2 = 0.251	0.056
